Measured values taken from patent publication US20260217708A1, “FUSED BENZAZEPINE DERIVATIVES FOR USE IN THE TREATMENT OF CANCER AND EPILEPSY” (UCB BIOPHARMA SRL, priority 2023, published 2026).

Experiments:
system Xc^− [1] = target: T1, system Xc^− (Homo sapiens, UniProt Q9UPY5); assay: Cystine-induced glutamate release assay; format: cell-based; design: endogenous in cells; host or cells: H4 cells; details: H4 cells, sodium-free HEPES buffer, 50 μM L-Cystine, 2 hours, Amplex Red glutamate readout; for IC50: read-out: pIC50 Cystine-induced glutamate release assay (converted)
T1 sequence (Q9UPY5 1-501): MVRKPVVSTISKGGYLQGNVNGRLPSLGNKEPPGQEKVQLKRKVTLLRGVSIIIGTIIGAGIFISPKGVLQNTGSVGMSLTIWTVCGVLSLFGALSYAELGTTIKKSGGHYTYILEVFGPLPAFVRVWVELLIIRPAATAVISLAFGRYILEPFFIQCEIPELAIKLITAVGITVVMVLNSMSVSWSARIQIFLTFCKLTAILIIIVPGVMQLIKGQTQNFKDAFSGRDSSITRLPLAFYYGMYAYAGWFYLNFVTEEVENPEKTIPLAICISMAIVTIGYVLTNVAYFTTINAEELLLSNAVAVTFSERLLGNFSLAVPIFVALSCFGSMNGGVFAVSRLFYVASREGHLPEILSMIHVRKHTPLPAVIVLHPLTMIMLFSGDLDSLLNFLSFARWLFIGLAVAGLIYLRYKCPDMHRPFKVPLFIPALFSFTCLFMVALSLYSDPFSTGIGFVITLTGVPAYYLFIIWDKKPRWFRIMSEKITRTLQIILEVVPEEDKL
T1 sequence (P08195 1-529 partner): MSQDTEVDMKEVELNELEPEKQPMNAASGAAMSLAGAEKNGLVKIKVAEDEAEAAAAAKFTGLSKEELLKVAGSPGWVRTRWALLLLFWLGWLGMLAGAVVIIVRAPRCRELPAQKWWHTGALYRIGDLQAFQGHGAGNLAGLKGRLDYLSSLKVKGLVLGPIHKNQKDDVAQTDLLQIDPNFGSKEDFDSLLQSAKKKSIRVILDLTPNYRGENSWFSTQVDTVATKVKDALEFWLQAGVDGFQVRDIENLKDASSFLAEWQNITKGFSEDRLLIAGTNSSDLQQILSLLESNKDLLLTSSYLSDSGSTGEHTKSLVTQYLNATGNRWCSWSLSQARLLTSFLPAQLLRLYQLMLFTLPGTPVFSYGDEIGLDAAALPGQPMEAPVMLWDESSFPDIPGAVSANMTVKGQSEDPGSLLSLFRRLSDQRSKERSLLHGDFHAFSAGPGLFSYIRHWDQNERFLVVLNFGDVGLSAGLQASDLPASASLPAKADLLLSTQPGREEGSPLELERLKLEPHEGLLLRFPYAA
Summary of the method: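 IC50 (reported as pIC50) normalized to DMSO 1% and Erastin 50 μM controls, from Amplex Red fluorescence of glutamate exported into supernatant. H4 cells were washed into sodium-free buffer to exclude EAAT transport, then given compound with 50 μM L-cystine for 2 h in the incubator.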

system Xc^− [2] = target: T1, system Xc^−; assay: [^14C]L-Cystine uptake assay; format: cell-based; design: endogenous in cells; host or cells: H4 cells; details: H4 cells, sodium-free HEPES buffer, 0.5 μM L-[14C]Cystine and 4.5 μM L-Cystine, 1 hour at 37° C.; for IC50: read-out: pIC50 [^14C] L-Cystine uptake assay (converted)
Summary of the method: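 Compound effect is given as pIC50, taken between controls of 1% DMSO and 50 μM Erastin. Human H4 cells were pretreated 15 min with compound in sodium-free buffer, then took up 0.5 μM [14C]cystine with 4.5 μM cold cystine for 1 hour at 37° C, read by scintillation proximity counting.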

IC50 (system Xc^− [1]) [nM]	IC50 (system Xc^− [2]) [nM]	SMILES	pIC50 Cystine-induced glutamate release assay (system Xc^− [1])	pIC50 [^14C] L-Cystine uptake assay (system Xc^− [2])
39.8 to 100	15.8 to 39.8	COc1ccc(NC(=O)CN2C(=O)C(C)c3ncccc3-c3c2cc(C)nc3F)cc1F (stereo not drawn) [#131, 2-(3-fluoro-5,10-dimethyl-9-oxo-4,8,12-triazatricyclo[9.4.0.0^2.7]pentadeca-1(11),2(7),3,5,12,14-hexaen-8-yl)-N-(3-fluoro-4-methoxy-phenyl)acetamide]		
15.8 to 39.8	15.8 to 39.8	Cc1cc2c(n(C)c1=O)-c1ccccc1CC(=O)N2CC(=O)Nc1ccc(Cl)c(F)c1 [#350, N-(4-chloro-3-fluoro-phenyl)-2-(1,3-dimethyl-2,6-dioxo-7H-pyrido[3,2-d][3]benzazepin-5-yl)acetamide]		
39.8 to 100	100 to 501	O=C(CN1C(=O)Cc2ncccc2-c2c1cc(F)nc2F)Nc1ccc(C(F)(F)F)cc1 [#43, 2-(3,5-difluoro-9-oxo-4,8,12-triazatricyclo [9.4.0.0^2,7]pentadeca-1(11),2,4,6,12,14-hexaen-8-yl)-N-[4-(trifluoromethyl)phen-yl]acetamide]		
39.8 to 100	100 to 501	Cc1cc2c(c(O)n1)-c1ccccc1CC(=O)N2CC(=O)Nc1ccc(C(F)(F)F)cc1 [#55, 2-(1-hydroxy-3-methyl-6-oxo-7H-pyrido[4,3-d][3]benzazepin-5-yl)-N-[4-(trifluoromethyl)phenyl]acetamide]		
15.8 to 39.8	< 15.8	Cc1ccc(NC(=O)CN2C(=O)C(C)c3ccccc3-c3c2cc(C)c(=O)n3C)cc1F (stereo not drawn) [#120, N-(3-fluoro-4-methyl-phenyl)-2-(1,3,7-trimethyl-2,6-dioxo-7H-pyrido[3,2-d][3]benzazepin-5-yl)acetamide]		
100 to 501	39.8 to 100	Cc1cc2c(c(F)n1)-c1ccnn1C(C)C(=O)N2CC(=O)Nc1ccc(C(F)(F)F)cc1 (stereo not drawn) [#111, 2-(14-fluoro-7,12-dimethyl-8-oxo-5,6,9,13-tetrazatricyclo[8.4.0.0^2,6]tetradeca-1(10),2,4,11,13-pentaen-9-yl)-N-[4-(trifluoromethyl)phenyl]acetamide]		
< 15.8	< 15.8	CC1C(=O)N(CC(=O)Nc2ccc(Cl)c(F)c2)c2cc(C3(F)CC3)ncc2-c2cc(F)cnc21 (single isomer, unassigned) [#326, N-(4-chloro-3-fluoro-phenyl)-2-[14-fluoro-5-(1-fluorocyclopropyl)-10-methyl-9-oxo-4,8,12-triazatricyclo[9.4.0.0^2,7]pentadeca-1(15),2,4,6,11,13-hexaen-8-yl]acetamide]		
15.8 to 39.8	15.8 to 39.8	Cc1cc2c(c(F)n1)-c1cccnc1[C@@H](C)C(=O)N2CC(=O)Nc1ccc(C(C)(F)F)c(F)c1 (single isomer, unassigned) [#236]		
< 15.8	< 15.8	Cc1cc2c(c(F)n1)-c1cccnc1[C@@H](C)C(=O)N2CC(=O)Nc1ccc(C(F)F)c(F)c1 (single isomer, unassigned) [#235]		
< 15.8	< 15.8	Cc1cc2c(c(=O)n1C)-c1cccnc1[C@@H](C)C(=O)N2CC(=O)Nc1ccc(C(F)F)cc1 (single isomer, unassigned) [#177, Enantiomer (10R) or (10S) of N-[4-(difluoromethyl)phenyl]-2-[4,5,10-trimethyl-3,9-dioxo-4,8,12-triazatricyclo[9.4.0.0^2,7]pentadeca-1(11),2(7),5,12,14-pentaen-8-yl]acetamide]		
		O=C(CN1C(=O)Cc2cc(F)ccc2-c2c1ccnc2Cl)Nc1ccc(C(F)(F)F)cc1 (single isomer, unassigned) [#193, Atropisomer aR or aS of 2-(1-chloro-9-fluoro-6-oxo-7H-pyrido[4,3-d][3]benzazepin-5-yl)-N-[4-(trifluoromethyl)phenyl]acetamide]	C (about 7.40 < pIC50 ≤ about 7.80)	D (plC50 > about 7.80)
15.8 to 39.8	< 15.8	CC1C(=O)N(CC(=O)Nc2ccc(C(F)F)cc2)c2cc(N3CC4(CCOC4)C3)nc(F)c2-c2cccnc21 (single isomer, unassigned) [#282, N-[4-(difluoromethyl)phenyl]-2-[3-fluoro-10-methyl-5-(6-oxa-2-azaspiro[3.4]octan-2-yl)-9-oxo-4,8,12-triazatricyclo[9.4.0.0^2,7]pentadeca-1(15),2,4,6,11,13-hexaen-8-yl]acetamide]		
15.8 to 39.8	15.8 to 39.8	C[C@@H]1C(=O)N(CC(=O)Nc2ccc(C(F)F)cc2)c2cc(N3CC[C@@H](F)C3)nc(F)c2-c2cccnc21 (single isomer, unassigned) [#277, N-[4-(difluoromethyl)phenyl]-2-[3-fluoro-5-[3-fluoropyrrolidin-1-yl]-10-methyl-9-oxo-4,8,12-triazatricyclo[9.4.0.0^2,7]pentadeca-1(15),2,4,6,11,13-hexaen-8-yl]acetamide]		
< 15.8	< 15.8	CCn1c(C)cc2c(c1=O)-c1cccnc1[C@@H](C)C(=O)N2CC(=O)Nc1ccc(Cl)c(F)c1 (single isomer, unassigned) [#176, Enantiomer (10R) or (10S) of N-(4-chloro-3-fluoro-phenyl)-2-[4-ethyl-5,10-dimethyl-3,9-dioxo-4,8,12-triazatricyclo[9.4.0.0^2,7]pentadeca-1(15),2(7),5,11,13-pentaen-8-yl]acetamide]		
15.8 to 39.8	15.8 to 39.8	Cc1cc2c(c(=O)n1C)-c1cncnc1C(C)C(=O)N2CC(=O)Nc1ccc(C(F)F)cc1 (single isomer, unassigned) [#367, N-[4-(difluoromethyl)phenyl]-2-[8,13,14-trimethyl-9,15-dioxo-4,6,10,14-tetrazatricyclo[9.4.0.0^2,7]pentadeca-1(11),2(7),3,5,12-pentaen-10-yl]acetamide]		
39.8 to 100	15.8 to 39.8	COc1nc2c(cc1C)N(CC(=O)Nc1ccc(C(F)(F)F)cc1)C(=O)C(C)c1ncccc1-2 (stereo not drawn) [#109, 2-(4-methoxy-5,10-dimethyl-9-oxo-3,8,12-triazatricyclo[9.4.0.0^2,7]pentadeca-1(11),2,4,6,12,14-hexaen-8-yl)-N-[4-(trifluoromethyl)phenyl]acetamide]		
39.8 to 100	< 15.8	Cc1cc2c(c(F)n1)-c1ccccc1CC(=O)N2CC(=O)Nc1ccc(C(F)F)cc1 [#134, N-[4-(difluoromethyl)phenyl]-2-(1-fluoro-3-methyl-6-oxo-7H-pyrido[4,3-d][3]benzazepin-5-yl)acetamide]		
100 to 501	100 to 501	Cc1cc2c(cn1)N(CC(=O)Nc1ccc(C(F)(F)F)cc1)C(=O)Cc1ccccc1-2 [#29, 2-(2-methyl-6-oxo-7H-pyrido[3,4-d] [3]benzazepin-5-yl)-N-[4-(trifluoro-methyl)phenyl] acetamide]		
15.8 to 39.8	15.8 to 39.8	COc1nc(C)cc2c1-c1cccnc1CC(=O)N2CC(=O)Nc1ccc(C(F)(F)F)cc1 [#75, 2-(3-methoxy-5-methyl-9-oxo-4,8,12-triazatricyclo[9.4.0.0^2,7]pentadeca-1(11),2,4,6,12,14-hexaen-8-yl)-N-[4-(trifluoromethyl)phenyl]acetamide]		
39.8 to 100	15.8 to 39.8	Cc1cc2c(c(F)n1)-c1ccc(C)nc1C(C)C(=O)N2CC(=O)Nc1ccc(C(F)(F)F)cc1 (stereo not drawn) [#93, 2-(3-fluoro-5,10,13-trimethyl-9-oxo-4,8,12-triazatricyclo[9.4.0.0^2,7]pentadeca-1(11),2(7),3,5,12,14-hexaen-8-yl)-N-[4-(trifluoromethyl)phenyl]acetamide]		

SMILES	IC50 (system Xc^− [1]) [nM]	IC50 (system Xc^− [2]) [nM]	pIC50 Cystine-induced glutamate release assay (system Xc^− [1])	pIC50 [^14C] L-Cystine uptake assay (system Xc^− [2])
Cc1cc2c(c(C(F)F)n1)-c1ccccc1CC(=O)N2CC(=O)Nc1ccc(C(F)(F)F)cc1 [#56, 2-[1-(difluoromethyl)-3-methyl-6-oxo-7H-pyrido[4,3-d][3]benzazepin-5-yl]-N-[4-(trifluoromethyl)phenyl]acetamide]	39.8 to 100	39.8 to 100		
